Experimental data reported in ChEMBL document CHEMBL1201862, “PubChem BioAssay data set” (2004).
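In this assay, cells in 96-well plates receive the compound at five concentrations for 48 hours. Endpoints are linearly interpolated between the surrounding concentrations. GI50: concentration for 50% inhibition of growth.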 Calls of active or inactive are those of the source. Rule as the data show it: active = GI50 up to about 1.1 µM and inactive = higher.

How the values were obtained:
Test in all cases: NCI tumour cell line growth inhibition, 48 h
CAKI-1 = system: CAKI-1
CCRF-CEM = system: CCRF-CEM
EKVX = system: EKVX
HCC 2998 = system: HCC 2998
IGROV-1 = system: IGROV-1
M14 = system: M14
Malme-3M = system: Malme-3M
NCI-H522 = system: NCI-H522
OVCAR-3 = system: OVCAR-3
SF-295 = system: SF-295
SF-539 = system: SF-539
SK-MEL-5 = system: SK-MEL-5
SK-OV-3 = system: SK-OV-3
SW-620 = system: SW-620
UACC-257 = system: UACC-257
UO-31 = system: UO-31
HCT-116 = system: HCT-116
SNB-19 = system: SNB-19

Measured: GI50

N#CCCc1nc2ccc(Br)cc2c(=O)n1-c1ccc(O)c([N+](=O)[O-])c1
inactive: CAKI-1 32.9 µM | CCRF-CEM 19.7 µM | EKVX 25.5 µM | HCC 2998 18.6 µM | IGROV-1 20.6 µM | M14 21 µM | Malme-3M 17.3 µM | NCI-H522 15.8 µM | OVCAR-3 18.7 µM | SF-295 20.1 µM | SF-539 18.8 µM | SK-MEL-5 18.4 µM | SK-OV-3 38.5 µM | SW-620 22.1 µM | UACC-257 30.1 µM | UO-31 25.6 µM

O=C(O)/C=C/c1ccncc1
inactive: CAKI-1 > 100 µM | CCRF-CEM > 100 µM | EKVX > 100 µM | HCC 2998 > 100 µM | HCT-116 > 100 µM | IGROV-1 > 100 µM | M14 > 100 µM | Malme-3M > 100 µM | NCI-H522 > 100 µM | OVCAR-3 > 100 µM | SF-295 > 100 µM | SF-539 > 100 µM | SK-MEL-5 > 100 µM | SK-OV-3 > 100 µM | SNB-19 > 100 µM | SW-620 > 100 µM | UACC-257 > 100 µM | UO-31 > 100 µM

C=C1CCC23CC(CC[C@@H]2[C@@]12C[C@@H](c1ccoc1)OC2=O)OC3=O (stereo partly specified)
inactive: CAKI-1 > 100 µM | CCRF-CEM 63 µM | EKVX > 100 µM | HCC 2998 > 100 µM | HCT-116 > 100 µM | IGROV-1 > 100 µM | M14 > 100 µM | Malme-3M > 100 µM | NCI-H522 > 100 µM | OVCAR-3 > 100 µM | SF-295 > 100 µM | SF-539 > 100 µM | SK-MEL-5 > 100 µM | SK-OV-3 > 100 µM | SNB-19 > 100 µM | SW-620 > 100 µM | UACC-257 > 100 µM | UO-31 > 100 µM

COC(=O)/C(=N/O)C(C(=O)OC)C(=O)C(=O)Nc1c(Cl)cc(C)cc1S(=O)(=O)O (stereo unspecified)
inactive: CAKI-1 > 100 µM | CCRF-CEM 42.8 µM | EKVX > 100 µM | HCC 2998 > 100 µM | HCT-116 43.8 µM | IGROV-1 > 100 µM | M14 > 100 µM | Malme-3M > 100 µM | NCI-H522 33.5 µM | OVCAR-3 > 100 µM | SF-295 > 100 µM | SF-539 > 100 µM | SK-MEL-5 > 100 µM | SK-OV-3 > 100 µM | SNB-19 > 100 µM | UACC-257 > 100 µM | UO-31 > 100 µM

O=C(CC(=O)n1nc(-c2ccccc2)c(/N=N/c2ccc(Cl)cc2)c1-c1ccccc1)Nc1ccc(Cl)cc1
inactive: CAKI-1 > 100 µM | CCRF-CEM > 43.5 µM | EKVX > 100 µM | HCC 2998 > 100 µM | HCT-116 > 39.9 µM | IGROV-1 > 100 µM | M14 > 100 µM | Malme-3M > 100 µM | NCI-H522 > 100 µM | OVCAR-3 > 100 µM | SF-295 > 100 µM | SF-539 > 100 µM | SK-MEL-5 > 100 µM | SK-OV-3 > 100 µM | SNB-19 > 100 µM | SW-620 > 44.1 µM | UACC-257 > 49.2 µM | UO-31 > 100 µM

CC1C(=O)CC(c2cccs2)N(N=O)C1c1cccs1 (stereo unspecified)
inactive: CAKI-1 > 100 µM | CCRF-CEM 34 µM | EKVX 57.1 µM | HCC 2998 30.4 µM | HCT-116 46.2 µM | IGROV-1 98.6 µM | Malme-3M > 82 µM | NCI-H522 28.2 µM | OVCAR-3 47 µM | SF-295 24.7 µM | SF-539 57.5 µM | SK-MEL-5 33.4 µM | SK-OV-3 29.8 µM | SNB-19 > 85.3 µM | SW-620 54.6 µM | UACC-257 39.1 µM | UO-31 43.6 µM

Cc1nc2c(o1)/C(=N\c1ccccc1)c1ccccc1/C2=N/c1ccccc1
inactive: CAKI-1 > 100 µM | CCRF-CEM 58.2 µM | EKVX 79.1 µM | HCC 2998 > 100 µM | HCT-116 70.8 µM | IGROV-1 > 100 µM | M14 51.5 µM | Malme-3M 56.6 µM | NCI-H522 33 µM | OVCAR-3 26.6 µM | SF-295 > 100 µM | SF-539 > 100 µM | SK-MEL-5 > 100 µM | SK-OV-3 > 100 µM | SNB-19 > 100 µM | SW-620 16.9 µM | UACC-257 > 100 µM | UO-31 73.6 µM

CC(=O)C(=Cc1cn(C)c(=O)n(C)c1=O)C(C)=O
inactive: CAKI-1 83 µM | CCRF-CEM 49.4 µM | EKVX 121 µM | HCC 2998 122 µM | HCT-116 87.5 µM | IGROV-1 150 µM | Malme-3M 83 µM | NCI-H522 16.8 µM | OVCAR-3 116 µM | SF-295 107 µM | SF-539 103 µM | SK-MEL-5 86.9 µM | SK-OV-3 99.8 µM | SNB-19 125 µM | SW-620 106 µM | UACC-257 85.9 µM | UO-31 83.8 µM

CCOC(=O)/C=C/c1c[nH]c(=O)[nH]c1=O
inactive: CAKI-1 > 75 µM | CCRF-CEM > 75 µM | EKVX > 75 µM | HCC 2998 > 75 µM | HCT-116 > 75 µM | IGROV-1 > 75 µM | Malme-3M > 75 µM | NCI-H522 > 75 µM | OVCAR-3 > 75 µM | SF-295 > 75 µM | SF-539 > 75 µM | SK-MEL-5 > 75 µM | SK-OV-3 > 41.5 µM | SNB-19 > 75 µM | SW-620 > 47.3 µM | UACC-257 > 75 µM | UO-31 > 75 µM

CCOC1=CP(=O)(OCC)CC(C)=C1Cl (stereo unspecified)
inactive: CAKI-1 > 100 µM | CCRF-CEM > 100 µM | EKVX > 100 µM | HCC 2998 > 100 µM | HCT-116 > 100 µM | IGROV-1 > 100 µM | M14 > 100 µM | Malme-3M > 100 µM | NCI-H522 > 100 µM | OVCAR-3 > 100 µM | SF-295 > 100 µM | SF-539 > 100 µM | SK-MEL-5 > 100 µM | SK-OV-3 > 100 µM | SNB-19 > 100 µM | SW-620 > 100 µM | UACC-257 > 100 µM | UO-31 > 100 µM

CCCCCCc1cn([C@H]2C[C@H](O)[C@@H](CO)O2)c(=O)[nH]c1=O
inactive: CAKI-1 > 100 µM | CCRF-CEM > 100 µM | EKVX > 100 µM | HCC 2998 > 100 µM | HCT-116 > 100 µM | IGROV-1 > 100 µM | Malme-3M > 100 µM | NCI-H522 > 100 µM | OVCAR-3 > 100 µM | SF-295 > 31.6 µM | SF-539 > 100 µM | SK-MEL-5 > 100 µM | SK-OV-3 > 10 µM | SNB-19 > 100 µM | SW-620 > 100 µM | UACC-257 > 100 µM | UO-31 > 100 µM
